This assay deals with T1, Recombinant human liver GK1 (GST-GK) (Homo sapiens, UniProt P35557).
T1 construct: made in house; host or cells: E. coli
T1 sequence (P35557 1-466 isoform P35557-2): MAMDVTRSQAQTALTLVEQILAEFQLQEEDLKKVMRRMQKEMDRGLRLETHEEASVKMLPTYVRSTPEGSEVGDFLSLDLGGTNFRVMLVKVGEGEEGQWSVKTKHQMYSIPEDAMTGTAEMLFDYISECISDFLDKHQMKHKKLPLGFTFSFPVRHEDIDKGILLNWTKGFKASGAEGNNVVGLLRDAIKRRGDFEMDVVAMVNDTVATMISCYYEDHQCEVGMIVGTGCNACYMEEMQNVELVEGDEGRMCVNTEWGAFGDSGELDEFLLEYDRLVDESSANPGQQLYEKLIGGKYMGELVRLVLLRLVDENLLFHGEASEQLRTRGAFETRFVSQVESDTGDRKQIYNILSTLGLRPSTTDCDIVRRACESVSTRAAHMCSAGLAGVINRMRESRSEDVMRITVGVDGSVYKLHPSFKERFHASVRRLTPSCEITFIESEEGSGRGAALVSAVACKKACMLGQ
The assay can be described thus: In vitro glucokinase activity, G6PDH-coupled spectrophotometric assay. It counts as biochemical. To be noted: 5 mM D-glucose, 30° C.; for SC1.5 (concentration of activator that produced a 50% increase in the activity of GK): pH 7.1. On the procedure: Glucokinase In Vitro Assay Protocol: Glucokinase (GK) was assayed by coupling the production of glucose-6-phosphate to the generation of NADH with glucose-6-phosphate dehydrogenase (G6PDH, 0.75-1 kunits/mg; Boehringer Mannheim, Indianapolis, Ind.) from Leuconostoc mesenteroides as the coupling enzyme (Scheme 2).
Recombinant human liver GK1 was expressed in E. coli as a glutathione S-transferase fusion protein (GST-GK) [Liang et al, 1995] and was purified by chromatography over a glutathione-Sepharose 4B affinity column using the procedure provided by the manufacturer (Amersham Pharmacia Biotech, Piscataway, N.J.).
The assay was conducted at 30° C. in a flat bottom 96-well tissue culture plate from Costar (Cambridge, Mass.) with a final incubation volume of 120 μL. The incubation reaction contained the following: 25 mM Hepes buffer (pH 7.1), 25 mM KCl, 5 mM D-glucose, 1 mM ATP, 1.8 mM NAD, 2 mM MgCl2, 1 μM sorbitol-6-phosphate, 1 mM dithiothreitol, test drug or 10% dimethylsulfoxide, ˜7 units/ml G6PDH, and GK (see below). All organic reagents were >98% pure and were from Boehringer Mannheim with the exceptions of D-glucose and Hepes which were from Sigma Chemical Co, St Louis, Mo. Test compounds were dissolved in dimethylsulfoxide and were added to the incubation reaction minus GST-GK in a volume of 12 μL to yield a final dimethylsulfoxide concentration of 10%. This mix was pre-incubated in the temperature controlled chamber of a SPECTRAmax 250 microplate spectrophotometer (Molecular Devices Corporation, Sunnyvale, Calif.) for 10 minutes to allow temperature equilibrium and then the reaction was started by the addition of 20 μL GST-GK.
After addition of enzyme, the increase in optical density (OD) at 340 nm was monitored spectrophotometrically to determine the rate of change (OD340 per min). The GK activity (OD340/min) in control wells (10% dimethylsulfoxide minus GK activators) was compared with the activity in wells containing test GK activators, and the concentration of activator that produced a 50% increase in the activity of GK, i.e., the SC1.5, was calculated.

Consider 27 compounds from patent publication US20120142705A1, “ISATIN AND OXINDOLE COMPOUNDS” (priority 2010, published 2012).

`COc1ccc2c(c1)C(=O)C(=O)N2C(CC(C)C)C(=O)Nc1ccccn1` (stereo not drawn) [Example 54, 2-(5-Methoxy-2,3-dioxo-2,3-dihydro-indol-1-yl)-4-methyl-pentanoic acid pyridin-2-ylamide]: the fold induction at 30 µM turned out to be 1.49. The same measure, in the same setting: in the case of `COc1ccc2c(c1)C(=O)C(=O)N2C(CC(C)C)C(=O)Nc1nccs1` (stereo not drawn) [Example 55, 2-(5-Methoxy-2,3-dioxo-2,3-dihydro-indol-1-yl)-4-methyl-pentanoic acid thiazol-2-ylamide] it was 1.39. For the compound `COc1ccc2c(c1)CC(=O)N2C(CC(C)C)C(=O)Nc1nccs1` (stereo not drawn) [Example 56, 2-(5-Methoxy-2-oxo-2,3-dihydro-indol-1-yl)-4-methyl-pentanoic acid thiazol-2-ylamide], the “SC1.5 (concentration of activator that produced a 50% increase in the activity of GK)” value was determined as 22.75 µM. The same measure, in the same setting: in the case of `COc1ccc2c(c1)CC(=O)N2C(CC(C)C)C(=O)Nc1ccccn1` (stereo not drawn) [Example 57, 2-(5-Methoxy-2-oxo-2,3-dihydro-indol-1-yl)-4-methyl-pentanoic acid pyridin-2-ylamide] it was 13.89 µM. As to `COc1ccc2c(c1)CC(=O)N2C(CC(C)C)C(=O)Nc1cnccn1` (stereo not drawn) [Example 58, 2-(5-Methoxy-2-oxo-2,3-dihydro-indol-1-yl)-4-methyl-pentanoic acid pyrazin-2-ylamide], the fold induction at 30 µM is 1.31. As to `CC(C)(O)Cn1ccc(NC(=O)C(CC2CCCC2)N2C(=O)Cc3ccccc32)n1` (stereo not drawn) [Example 59, 3-Cyclopentyl-N-[1-(2-hydroxy-2-methyl-propyl)-1H-pyrazol-3-yl]-2-(2-oxo-2,3-dihydro-indol-1-yl)-propionamide], the “SC1.5 (concentration of activator that produced a 50% increase in the activity of GK)” value turned out to be 3.87 µM.

Take `O=C1C(=O)N(C(CC2CCCC2)C(=O)Nc2cnccn2)c2ccc(Br)cc21` (stereo not drawn) [Example 60, 2-(5-Bromo-2,3-dioxo-2,3-dihydro-indol-1-yl)-3-cyclopentyl-N-pyrazin-2-yl-propionamide]: the “SC1.5 (concentration of activator that produced a 50% increase in the activity of GK)” value stood at 5.48 µM. Still for that read-out and setting: next, `O=C1C(=O)N(C(CC2CCCC2)C(=O)Nc2ccccn2)c2ccc(Br)cc21` (stereo not drawn) [Example 61, 2-(5-Bromo-2,3-dioxo-2,3-dihydro-indol-1-yl)-3-cyclopentyl-N-pyridin-2-yl-propionamide]: 0.95 µM. Same read-out and setting: next, `Cn1ccc(NC(=O)C(CC2CCCC2)N2C(=O)C(=O)c3cc(Br)ccc32)n1` (stereo not drawn) [Example 62, 2-(5-Bromo-2,3-dioxo-2,3-dihydro-indol-1-yl)-3-cyclopentyl-N-(1-methyl-1H-pyrazol-3-yl)-propionamide]: 6.18 µM. Still for that read-out and setting: next, `O=C1C(=O)N(C(CC2CCCC2)C(=O)Nc2nccs2)c2ccc(Br)cc21` (stereo not drawn) [Example 63, 2-(5-Bromo-2,3-dioxo-2,3-dihydro-indol-1-yl)-3-cyclopentyl-N-thiazol-2-yl-propionamide]: 2.18 µM.

Regarding `O=C(Nc1ccccn1)C(CC1CCCC1)N1C(=O)Cc2cc(Br)ccc21` (stereo not drawn) [Example 64, 2-(5-Bromo-2-oxo-2,3-dihydro-indol-1-yl)-3-cyclopentyl-N-pyridin-2-yl-propionamide], the “SC1.5 (concentration of activator that produced a 50% increase in the activity of GK)” value came to 0.48 µM. Same read-out and setting: in the case of `Cn1ccc(NC(=O)C(CC2CCCC2)N2C(=O)Cc3cc(Br)ccc32)n1` (stereo not drawn) [Example 65, 2-(5-Bromo-2-oxo-2,3-dihydro-indol-1-yl)-3-cyclopentyl-N-(1-methyl-1H-pyrazol-3-yl)-propionamide] it was 2.71 µM; in that of `O=C(Nc1nccs1)C(CC1CCCC1)N1C(=O)Cc2cc(Br)ccc21` (stereo not drawn) [Example 66, 2-(5-Bromo-2-oxo-2,3-dihydro-indol-1-yl)-3-cyclopentyl-N-thiazol-2-yl-propionamide], 1.69 µM; in that of `O=C(Nc1cnccn1)C(CC1CCCC1)N1C(=O)Cc2cc(Br)ccc21` (stereo not drawn) [Example 67, 2-(5-Bromo-2-oxo-2,3-dihydro-indol-1-yl)-3-cyclopentyl-N-pyrazin-2-yl-propionamide], 1.28 µM. Consider `CC(C)CC(C(=O)Nc1cnccn1)N1C(=O)C(=O)c2cc(Br)ccc21` (stereo not drawn) [Example 68, 2-(5-Bromo-2,3-dioxo-2,3-dihydro-indol-1-yl)-4-methyl-pentanoic acid pyrazin-2-ylamide], for which the fold induction at 30 µM was 1.32. `CC(C)CC(C(=O)Nc1ccccn1)N1C(=O)C(=O)c2cc(Br)ccc21` (stereo not drawn) [Example 69, 2-(5-Bromo-2,3-dioxo-2,3-dihydro-indol-1-yl)-4-methyl-pentanoic acid pyridin-2-ylamide]: the “SC1.5 (concentration of activator that produced a 50% increase in the activity of GK)” value was 7.43 µM. Turning to `CC(C)CC(C(=O)Nc1ccn(C)n1)N1C(=O)C(=O)c2cc(Br)ccc21` (stereo not drawn) [Example 70, 2-(5-Bromo-2,3-dioxo-2,3-dihydro-indol-1-yl)-4-methyl-pentanoic acid (1-methyl-1H-pyrazol-3-yl)-amide], the fold induction at 30 µM was determined as 1.32.

For the compound `CC(C)CC(C(=O)Nc1nccs1)N1C(=O)C(=O)c2cc(Br)ccc21` (stereo not drawn) [Example 71, 2-(5-Bromo-2,3-dioxo-2,3-dihydro-indol-1-yl)-4-methyl-pentanoic acid thiazol-2-ylamide], the fold induction at 30 µM was 1.5. Take `CC(C)CC(C(=O)Nc1nccs1)N1C(=O)Cc2cc(Br)ccc21` (stereo not drawn) [Example 72, 2-(5-Bromo-2-oxo-2,3-dihydro-indol-1-yl)-4-methyl-pentanoic acid thiazol-2-ylamide]: the “SC1.5 (concentration of activator that produced a 50% increase in the activity of GK)” value worked out at 5.82 µM. Same read-out and setting: in the case of `CC(C)CC(C(=O)Nc1ccn(C)n1)N1C(=O)Cc2cc(Br)ccc21` (stereo not drawn) [Example 73, 2-(5-Bromo-2-oxo-2,3-dihydro-indol-1-yl)-4-methyl-pentanoic acid (1-methyl-1H-pyrazol-3-yl)-amide] it was 17.96 µM; in that of `CC(C)CC(C(=O)Nc1ccccn1)N1C(=O)Cc2cc(Br)ccc21` (stereo not drawn) [Example 74, 2-(5-Bromo-2-oxo-2,3-dihydro-indol-1-yl)-4-methyl-pentanoic acid pyridin-2-ylamide], 3.24 µM; in that of `CC(C)CC(C(=O)Nc1cnccn1)N1C(=O)Cc2cc(Br)ccc21` (stereo not drawn) [Example 75, 2-(5-Bromo-2-oxo-2,3-dihydro-indol-1-yl)-4-methyl-pentanoic acid pyrazin-2-ylamide], 11.4 µM.

As to `Cc1ccc2c(c1)C(=O)C(=O)N2C(CC1CCCC1)C(=O)Nc1cnccn1` (stereo not drawn) [Example 76, 3-Cyclopentyl-2-(5-methyl-2,3-dioxo-2,3-dihydro-indol-1-yl)-N-pyrazin-2-yl-propionamide], the “SC1.5 (concentration of activator that produced a 50% increase in the activity of GK)” value stood at 22.77 µM.

As for `Cc1ccc2c(c1)C(=O)C(=O)N2C(CC1CCCC1)C(=O)Nc1ccccn1` (stereo not drawn) [Example 77, 3-Cyclopentyl-2-(5-methyl-2,3-dioxo-2,3-dihydro-indol-1-yl)-N-pyridin-2-yl-propionamide], the “SC1.5 (concentration of activator that produced a 50% increase in the activity of GK)” value amounted to 6.67 µM. On the same count and under the same terms, in the case of `Cc1ccc2c(c1)C(=O)C(=O)N2C(CC1CCCC1)C(=O)Nc1ccn(C)n1` (stereo not drawn) [Example 78, 3-Cyclopentyl-2-(5-methyl-2,3-dioxo-2,3-dihydro-indol-1-yl)-N-(1-methyl-1H-pyrazol-3-yl)-propionamide] it was 29.38 µM.

With `Cc1ccc2c(c1)C(=O)C(=O)N2C(CC1CCCC1)C(=O)Nc1nccs1` (stereo not drawn) [Example 79, 3-Cyclopentyl-2-(5-methyl-2,3-dioxo-2,3-dihydro-indol-1-yl)-N-thiazol-2-yl-propionamide], the “SC1.5 (concentration of activator that produced a 50% increase in the activity of GK)” value came out at 16.22 µM.

For `Cc1ccc2c(c1)CC(=O)N2C(CC1CCCC1)C(=O)Nc1ccccn1` (stereo not drawn) [Example 80, 3-Cyclopentyl-2-(5-methyl-2-oxo-2,3-dihydro-indol-1-yl)-N-pyridin-2-yl-propionamide], the “SC1.5 (concentration of activator that produced a 50% increase in the activity of GK)” value worked out at 3.83 µM.

One may read the fold induction as the ratio of treated to control signal.
